Values quoted from earlier work in paper PMC8515052, “PepVAE: Variational Autoencoder Framework for Antimicrobial Peptide Generation and Activity Prediction” (Frontiers in Microbiology, 2021).

System: Acinetobacter baumannii
Conditions: murine model of infection; ref Stokes et al., 2020
Excerpt: Many pathogenic bacteria are resistant to the majority of, if not all, antibiotics that are currently being isolated using traditional methods. Because of this, generation of new antimicrobials is critical for survival in the post-antibiotic era ([Brown and Wright, 2016]). At the current rate, annual global death due to antibiotic resistance is projected to exceed 10 million by 2050, costing 100 trillion USD ([O’Neill, 2014]); however, investment has not kept up with the task with very few antibiotics currently in clinical development and far fewer likely to be approved for treatment of patien ...

## Nc1nnc(Sc2ncc([N+](=O)[O-])s2)s1 [halicin]
  activity against Acinetobacter baumannii: displays activity
